Source: paper PMC3914206

Experiments:
Type in all cases: binding
panel of 442 kinases [1] = biological target: T1, panel of 442 kinases (Homo sapiens, UniProt Q9BXA7); conditions: kinase TSSK1B; compound concentration 10 µM
T1 construct: purchased KINOMEscan
T1 sequence (Q9BXA7 1-367): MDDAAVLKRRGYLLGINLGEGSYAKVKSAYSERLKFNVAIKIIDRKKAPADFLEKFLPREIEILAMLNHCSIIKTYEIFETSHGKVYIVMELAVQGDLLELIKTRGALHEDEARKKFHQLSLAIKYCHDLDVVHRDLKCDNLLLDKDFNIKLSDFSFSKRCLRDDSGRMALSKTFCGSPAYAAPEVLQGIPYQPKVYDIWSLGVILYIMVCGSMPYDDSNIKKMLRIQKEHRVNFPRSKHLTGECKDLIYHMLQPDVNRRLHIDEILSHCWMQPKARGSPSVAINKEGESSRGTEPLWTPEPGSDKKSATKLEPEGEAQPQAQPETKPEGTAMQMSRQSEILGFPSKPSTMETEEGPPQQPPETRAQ
Excerpt: (§1) We assessed the selectivity of members of this scaffold using the KINOMEscan methodology across a near comprehensive panel of 442 kinases [[18,27]].

panel of 442 kinases [2] = biological target: T2, panel of 442 kinases (Homo sapiens, UniProt P14616); conditions: Compound Concentration 10 µM
T2 construct: purchased KINOMEscan
Excerpt: as §1

panel of 442 kinases [3] = biological target: T3, panel of 442 kinases (Homo sapiens, UniProt Q9HAZ1); conditions: Compound Concentration 10 µM
T3 construct: purchased KINOMEscan
Excerpt: as §1

T2 sequence (P14616 27-1297): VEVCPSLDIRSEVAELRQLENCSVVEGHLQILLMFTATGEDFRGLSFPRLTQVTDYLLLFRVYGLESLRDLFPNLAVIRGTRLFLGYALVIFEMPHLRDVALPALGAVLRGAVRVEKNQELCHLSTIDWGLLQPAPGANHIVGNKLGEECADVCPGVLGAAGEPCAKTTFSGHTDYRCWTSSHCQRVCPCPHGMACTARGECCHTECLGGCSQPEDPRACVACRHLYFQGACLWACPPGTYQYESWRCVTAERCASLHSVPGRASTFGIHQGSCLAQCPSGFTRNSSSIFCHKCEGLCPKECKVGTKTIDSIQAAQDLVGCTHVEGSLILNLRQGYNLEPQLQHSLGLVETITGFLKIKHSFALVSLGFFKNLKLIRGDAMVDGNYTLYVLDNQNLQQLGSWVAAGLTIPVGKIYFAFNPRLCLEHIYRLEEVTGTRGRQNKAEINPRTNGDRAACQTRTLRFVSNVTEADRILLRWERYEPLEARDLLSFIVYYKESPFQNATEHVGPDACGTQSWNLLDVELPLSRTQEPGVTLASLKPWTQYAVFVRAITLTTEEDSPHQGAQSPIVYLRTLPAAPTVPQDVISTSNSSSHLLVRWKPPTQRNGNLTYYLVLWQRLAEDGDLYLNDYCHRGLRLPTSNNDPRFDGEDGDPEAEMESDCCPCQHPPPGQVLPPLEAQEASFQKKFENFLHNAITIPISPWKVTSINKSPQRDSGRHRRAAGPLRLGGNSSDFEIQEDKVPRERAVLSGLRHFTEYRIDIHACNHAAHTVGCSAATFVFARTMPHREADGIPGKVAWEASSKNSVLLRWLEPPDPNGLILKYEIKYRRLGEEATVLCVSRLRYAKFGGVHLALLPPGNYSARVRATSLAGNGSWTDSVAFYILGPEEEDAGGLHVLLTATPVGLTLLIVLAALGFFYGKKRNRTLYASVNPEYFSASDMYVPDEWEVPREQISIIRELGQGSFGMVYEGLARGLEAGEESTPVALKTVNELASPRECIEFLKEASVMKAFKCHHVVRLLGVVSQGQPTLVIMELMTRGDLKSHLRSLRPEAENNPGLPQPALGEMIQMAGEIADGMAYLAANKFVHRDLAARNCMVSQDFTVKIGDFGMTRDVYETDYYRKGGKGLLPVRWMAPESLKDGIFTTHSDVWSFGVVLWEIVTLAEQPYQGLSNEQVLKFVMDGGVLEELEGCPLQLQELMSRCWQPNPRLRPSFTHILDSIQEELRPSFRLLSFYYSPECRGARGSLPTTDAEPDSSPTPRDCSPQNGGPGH
T3 sequence (Q9HAZ1 whole entry): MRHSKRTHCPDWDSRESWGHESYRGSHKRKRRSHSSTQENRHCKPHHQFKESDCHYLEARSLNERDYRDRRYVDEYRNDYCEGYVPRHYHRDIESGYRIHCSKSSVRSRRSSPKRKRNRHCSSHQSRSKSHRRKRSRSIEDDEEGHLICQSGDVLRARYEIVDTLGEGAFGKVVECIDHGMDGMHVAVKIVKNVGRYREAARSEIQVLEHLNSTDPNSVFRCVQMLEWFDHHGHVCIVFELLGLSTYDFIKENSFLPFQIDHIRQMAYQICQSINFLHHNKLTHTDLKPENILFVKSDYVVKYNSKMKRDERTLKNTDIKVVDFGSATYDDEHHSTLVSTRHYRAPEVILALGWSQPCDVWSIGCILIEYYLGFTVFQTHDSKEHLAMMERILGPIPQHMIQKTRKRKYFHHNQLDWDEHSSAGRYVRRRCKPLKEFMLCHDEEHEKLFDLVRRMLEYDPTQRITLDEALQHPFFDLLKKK

Row | Structure (SMILES) | % Ctrl, TSSK1B (panel of 442 kinases [1]) [% Ctrl] | KINOMEscan: INSRR (panel of 442 kinases [2]) | KINOMEscan: CLK4 (panel of 442 kinases [3])
1 | COc1cc(C(=O)N2CCC(N3CCN(C)CC3)CC2)ccc1Nc1ncc2c(n1)N(C1CCCC1)c1ccccc1C(=O)N2C [Compound 25, 11-cyclopentyl-2-((2-methoxy-4-(4-(4-methylpiperazin-1-yl)piperidine-1-carbonyl)phenyl)amino)-5-methyl-5H-benzo[e]pyrimido[5,4-b][1,4]diazepin-6(11H)-one] | 90 | 94 | 100
2 | CCOc1cc(C(=O)N2CCC(N3CCN(C)CC3)CC2)ccc1Nc1ncc2c(n1)N(C1CCCC1)c1ccccc1C(=O)N2C [Compound 26] | 100 | 100 | 100
3 | COc1cc(C(=O)N2CCC(N3CCN(C)CC3)CC2)ccc1Nc1ncc2c(n1)N1CCc3cccc(c31)C(=O)N2C [Compound 24] | 61 | – | 11
4 | COc1cc(C(=O)N2CCC(N3CCN(C)CC3)CC2)ccc1Nc1ncc2c(n1)N(C)c1ccccc1C(=O)N2C [15 (LRRK2-IN-1)] | 60 | 97 | 54
